US20030087906A1, “NITROGEN SUBSTITUTED BIARYL PURINE DERIVATIVES AS POTENT ANTIPROLIFERATIVE AGENTS” (priority 2001, published 2003)
Where “and” joins values, the source holds several entries; their conditions need not be identical. Equal entries are not always repeated. Entries after “also recorded” stand apart in the source; their conditions may differ. Where two headings read alike, the source gives them in different places.

Key:
[1] = biological target: T1, CyclinB/cdk1 (Homo sapiens, UniProt P06493); assay: CyclinB/cdk1 protein kinase assay (histone H1 phosphorylation); format: biochemical; details: complex immunopurified from HeLa cells; 15 μM ATP; replicate experiments
T1 construct: Monoclonal antibody against cyclinB (GNS1) is added to the supernatant; endogenous in cells
T1 sequence (P06493 whole entry): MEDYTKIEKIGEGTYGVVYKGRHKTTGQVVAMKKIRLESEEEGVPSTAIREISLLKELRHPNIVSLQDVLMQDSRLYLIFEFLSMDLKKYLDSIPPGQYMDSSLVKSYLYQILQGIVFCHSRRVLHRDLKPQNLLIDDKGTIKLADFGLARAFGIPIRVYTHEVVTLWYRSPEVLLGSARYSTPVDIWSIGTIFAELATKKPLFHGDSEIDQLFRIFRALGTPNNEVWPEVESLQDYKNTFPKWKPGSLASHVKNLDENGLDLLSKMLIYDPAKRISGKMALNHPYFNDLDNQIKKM
T1 sequence (P14635 whole entry partner): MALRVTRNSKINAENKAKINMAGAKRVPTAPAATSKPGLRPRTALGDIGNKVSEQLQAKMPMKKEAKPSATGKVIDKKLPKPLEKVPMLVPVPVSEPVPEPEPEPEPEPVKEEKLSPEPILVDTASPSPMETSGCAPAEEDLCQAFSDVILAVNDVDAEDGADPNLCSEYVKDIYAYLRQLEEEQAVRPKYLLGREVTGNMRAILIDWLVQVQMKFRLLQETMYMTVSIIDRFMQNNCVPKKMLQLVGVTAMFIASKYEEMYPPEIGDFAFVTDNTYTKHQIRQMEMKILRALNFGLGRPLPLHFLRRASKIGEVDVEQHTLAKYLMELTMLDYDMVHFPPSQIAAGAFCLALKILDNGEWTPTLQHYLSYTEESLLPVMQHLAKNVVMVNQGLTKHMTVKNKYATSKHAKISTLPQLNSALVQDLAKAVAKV
Description: HeLa cells are blocked at the G1/S border by culturing in the presence of 2 mM thymidine for 20 h. The cells are then rinsed 3×in phosphate buffered saline and resuspended in regular medium. After 4 h of culture, the mitotic blocker, nocodazole is added to a final concentration of 75 ng/ml. […] The lysate is then clarified by centrifugation at 10,000×g for 10 min. The supernatant is collected and diluted 1:5 with Lysis Buffer. Monoclonal antibody against cyclinB (GNS1) is added to the supernatant to a final concentration of 5 μg/ml and shaken at 4° C. for 2 h. The immune complexes are then collected by the addition of 200 μl of protein agarose beads for 1 h. The beads are washed 4×in lysis buffer and 1×in kinase assay buffer.
Duplicate assays were performed at each concentration.

[2] = biological target: CyclinE/cdk2 (Homo sapiens, UniProt P24941); assay: CyclinE/cdk2 protein kinase assay (histone H1 phosphorylation); details: 15 μM ATP, replicate experiments
[3] = biological target: CyclinA/cdk2 (Homo sapiens, UniProt P24941); assay: CyclinA/cdk2 protein kinase assay (histone H1 phosphorylation); details: IC50 CyclinA/cdk2, complex immunopurified from HeLa cells; 15 μM ATP; replicate experiments
[4] = tested on: Tumor Cells in Hollow Fibers; assay: NCI Hollow Fiber Assay (in vivo evaluation); details: for IP Score: IP fibers; for SC score: SC fibers
[5] = tested on: HeLa S-3 cells; assay: Inhibition of cell growth of HeLa cells (SRB); format: cell-based, human; details: 2 days of treatment, replicate experiments
Description: Growth inhibition (GI50) values were measured with HeLa S-3 cells selected for growth on plastic. […] One day later, a control plate was fixed by addition of TCA to 5%. After five rinses with tap water the plate was air dried and stored at 4° C. Test compounds were added to the remaining plates at 10-fold dilutions between 0.01 and 100 μM. Two days later all plates were fixed as described above. Cells were then stained by the addition of 100 μl per well of 0.4% sulforhodamine B (SRB) in 1% acetic acid for 30 min at 4° C. Wells were then quickly rinsed 5×with acetic acid (1%) and allowed to air dry. The SRB was then solubilized by the addition of 100 μl per well of unbuffered 10 mM Tris base. Dye was quantified by measuring absorbance at 490 nm on a Molecular Devices kinetic microplate reader. Growth at each inhibitor concentration relative to the untreated control was calculated according to the following equation: percent growth=100×(T−To)/(C−To), where T was the average optical density (OD) of the test wells after 2 days of treatment, To was the average OD of the wells in the control plate on day 0 and C was the average OD of untreated wells. Plots of percent growth versus inhibitor concentration were used to determine the GI50.

[6] = IC50 CyclinE/cdk2, complex immunopurified from HeLa cells

Structure (SMILES) | melting point | IC50 [1] | IC50 [2, 6] | IC50 [3] | GI50 ([5]; Homo sapiens, HeLa S3, 48 h) [µM] | also measured
C=CCn1cnc2c(NCc3ccc(-c4ccccc4)cc3)nc(N[C@H]3CC[C@H](N)CC3)nc21 [Compound 146] | 111 to 114 °C | – | – | – | – | –
CC(=O)N[C@H]1CC[C@H](Nc2nc(NCc3ccc(-c4cccc(F)c4)cc3)c3ncn(C(C)C)c3n2)CC1 [Compound 96] | – | 6 µM | 4 µM | 8 µM | – | –
CC(C)n1cnc2c(NCc3ccc(-c4cccnc4)cc3)nc(N[C@H]3CC[C@H](N)CC3)nc21 [Compound 103] | – | 1 µM | 0.2 µM | 0.6 µM and 0.7 µM | – | Cell Types Killed [4]: OVCAR 3,; also recorded: OVCAR 5, H522,; also recorded: MDA-MB-435,; also recorded: SF295; IP Score [4]: 38; SC score [4]: 6
CC(C)n1cnc2c(NCc3ccc(-c4cccc(F)c4)cc3)nc(N[C@H]3CC[C@H](N)CC3)nc21 [Compound 95] | – | 4 µM | – | – | – | –
CC(=O)NCCCNc1nc(NCc2ccc(-c3ccccc3)cc2)c2ncn(C(C)C)c2n1 [Compound 212] | 106 to 107 °C | – | – | – | 5 | –
CCCN[C@H]1CC[C@H](Nc2nc(NCc3ccc(-c4ccc(C)s4)cc3)c3ncn(C(C)C)c3n2)CC1 [Compound 159] | 150 to 155 °C | – | – | – | – | –
CC(C)n1cnc2c(NCc3ccc(-c4ccc(F)cc4)cc3)nc(N[C@H]3CC[C@H](N)CC3)nc21 [Compound 101] | – | 4 µM | – | – | – | –
CC[C@H](CO)Nc1nc(NCc2ccc(-c3cccc(NC(C)=O)c3)cc2)c2ncn(C(C)C)c2n1 [Compound 5] | – | 7 µM | – | – | 5 | –
COc1ccc(OC)c(-c2ccc(CNc3nc(N[C@H]4CC[C@H](NC(C)=O)CC4)nc4c3ncn4C(C)C)cc2)c1 [Compound 154] | 185 to 192 °C | – | – | – | 0.6 | GI50 [5]: 0.9 µM
CC(C)n1cnc2c(NCc3ccc(-c4ccc(C(=O)O)cc4)cc3)nc(N[C@H]3CC[C@H](N)CC3)nc21 [Compound 114] | 246 to 249 °C (dec.) | – | 0.7 µM | 3 µM | > 10 | –
Cc1cc(C)cc(-c2ccc(CNc3nc(N[C@H]4CC[C@H](N)CC4)nc4c3ncn4C(C)C)cc2)c1 [Compound 149] | 86 to 90 °C | – | – | – | – | –
CC(=O)N[C@H]1CC[C@H](Nc2nc(NCc3ccc(-c4ccc(C(=O)O)cc4)cc3)c3ncn(C(C)C)c3n2)CC1 [Compound 116] | 344 to 347 °C | – | > 10 µM | > 10 µM | > 10 | –
CC(C)n1cnc2c(NCc3ccc(-c4ccccc4)cc3)nc(N[C@H]3CCCC[C@H]3NC(=O)Nc3ccccc3)nc21 [Compound 80] | – | > 10 µM | > 10 µM and 4 µM and 2 µM | > 10 µM | – | –
CCn1cnc2c(Nc3cccc(Cl)c3)nc(N[C@H]3CCCC[C@H]3N)nc21 [Compound 125, reference compound] | – | 0.6 µM | 0.1 µM | 1 µM | 3 | –
COC(=O)c1ccc(-c2ccc(CNc3nc(N[C@H]4CC[C@H](NC(C)=O)CC4)nc4c3ncn4C(C)C)cc2)cc1 [Compound 117] | 247 to 250 °C | – | 3 µM | > 10 µM | – | –
CCn1cnc2c(NCc3ccc(-c4ccccc4)cc3)nc(N[C@H]3CC[C@H](N)CC3)nc21 [Compound 137] | 175 to 182 °C | – | – | – | – | –
CC(=O)N[C@H]1CC[C@H](Nc2nc(NCc3ccc(-c4cccs4)nc3)c3ncn(C(C)C)c3n2)CC1 [Compound 200] | 206 to 208 °C | – | – | – | 0.3 | GI50 [5]: 0.2 µM
CC(=O)N[C@H]1CC[C@H](Nc2nc(NCc3ccc(-c4ccc(F)c(Cl)c4)cc3)c3ncn(C(C)C)c3n2)CC1 [Compound 100] | – | > 10 µM | 4 µM | > 10 µM | 0.6 | –
Cc1ccc(-c2ccc(CNc3nc(N[C@H]4CC[C@H](N)CC4)nc4c3ncn4C(C)C)cc2)cc1 [Compound 13] | – | 4 µM | 2 µM and 0.3 µM and 0.9 µM | 4 µM and 1 µM and 0.8 µM | – | –
CC(=O)N[C@H]1CC[C@H](Nc2nc(NCc3ccc(-c4cccnc4)cc3)c3ncn(C(C)C)c3n2)CC1 [Compound 104] | – | 2 µM | 1 µM | 7 µM and 8 µM | 0.2 | –

Structure (SMILES) | melting point | IC50 [1] | IC50 [2, 6] | IC50 [3] | GI50 ([5]; Homo sapiens, HeLa S3, 48 h) [µM] | also measured
CC(C)n1cnc2c(NCc3ccc(-c4ccccc4)cc3)nc(NC3(CO)CCCC3)nc21 [Compound 53] | – | > 10 µM | 15 µM and 4 µM | > 10 µM | – | –
N[C@H]1CC[C@H](Nc2nc(NCc3ccc(-c4ccccc4)cc3)c3ncn(C4CCCC4)c3n2)CC1 [Compound 144] | 144 to 146 °C | – | – | – | – | –
CC(=O)N[C@H]1CC[C@H](Nc2nc(NCc3ccc(-c4ccccn4)nc3)c3ncn(C(C)C)c3n2)CC1 [Compound 94] | – | 0.4 µM | 0.3 µM | 0.6 µM and 0.2 µM | 0.1 | Cell Types Killed [4]: COLO205,; also recorded: OVCAR-3, H522; IP Score [4]: 22; SC score [4]: 2
CC(C)n1cnc2c(NCc3ccc(-c4ccccc4)cc3)nc(N[C@@H]3CCCC[C@H]3N)nc21 (racemic) [Compound 58] | – | 12 µM | 2 µM and 4 µM | 11 µM and 4 µM | – | –
CC(C)n1cnc2c(NCc3ccc(-c4ccccc4)nc3)nc(N[C@H]3CC[C@H](N)CC3)nc21 [Compound 86] | – | 2 µM | – | 0.9 µM and 0.7 µM and 0.4 µM and 0.6 µM | – | Cell Types Killed [4]: OVCAR 3,; also recorded: OVCAR 5, H522; IP Score [4]: 38; SC score [4]: 0
CC(C)n1cnc2c(NCc3ccc(-c4ccc(Cl)cc4)cc3)nc(N[C@H]3CC[C@H](N)CC3)nc21 [Compound 98] | – | > 10 µM | – | – | – | –
CC(C)n1cnc2c(NCc3ccc(-c4ccc(F)c(Cl)c4)cc3)nc(N[C@H]3CC[C@H](N)CC3)nc21 [Compound 14] | – | 7 µM | – | – | – | GI50 [5]: 0.03 µM
CCCn1cnc2c(NCc3ccc(-c4ccccc4)cc3)nc(N[C@H]3CC[C@H](N)CC3)nc21 [Compound 142] | 133 to 138 °C | – | – | – | – | –
CC(C)n1cnc2c(NCc3ccc(-c4ccccn4)nc3)nc(N[C@H]3CC[C@H](N)CC3)nc21 [Compound 93] | – | 0.9 µM | 0.09 µM and 0.1 µM | 0.2 µM and 0.3 µM | – | Cell Types Killed [4]: OVCAR-3; IP Score [4]: 22; SC score [4]: 8; GI50 [5]: 0.3 µM
CC(=O)N[C@H]1CC[C@H](Nc2nc(NCc3ccc(-c4cc(C)cc(C)c4)cc3)c3ncn(C(C)C)c3n2)CC1 [Compound 150] | 207 to 210 °C | – | – | – | 0.3 | –
CC(=O)N[C@H]1CC[C@H](Nc2nc(NCc3ccc(-c4cccc(CN)c4)cc3)c3ncn(C(C)C)c3n2)CC1 [Compound 223] | 200 to 206 °C | – | – | – | – | –
CC(=O)N[C@H]1CC[C@H](Nc2nc(NCc3ccc(-c4ccc(Cl)cc4)cc3)c3ncn(C(C)C)c3n2)CC1 [Compound 99] | – | > 10 µM | 9 µM | > 10 µM | 5 | –
CC(=O)N[C@H]1CC[C@H](Nc2nc(NCc3cccc(-c4ccccc4)c3)c3ncn(C(C)C)c3n2)CC1 [Compound 135] | 183 to 185 °C | – | – | – | – | –
COc1cccc(-c2ccc(CNc3nc(N[C@H]4CC[C@H](NC(C)=O)CC4)nc4c3ncn4C(C)C)cn2)c1 [Compound 194] | 161 to 163 °C | – | – | – | 0.06 | GI50 [5]: 0.04 µM
CC(C)n1cnc2c(NCc3ccc(-c4ccccc4)cc3)nc(N[C@H]3CC[C@H](N)CC3)nc21 [Compound 75] | – | 6 µM | 3 µM | 3 µM | – | –
CC(C)n1cnc2c(NCc3ccc(-c4ccccc4)cc3)nc(N[C@@H]3CCCC[C@@H]3N)nc21 (racemic) [Compound 74] | – | 6 µM | 2 µM and 3 µM | 5 µM and 2 µM and 1 µM | – | –
CC(C)n1cnc2c(NCc3cccnc3)nc(N[C@@H]3CCCC[C@@H]3N)nc21 [Compound 126, reference compound] | – | 2 µM and 0.2 µM | 0.06 µM | 0.6 µM and 0.8 µM | – | IC50 ([2]; read-out: IC50 CyclinE/cdk2, complex immunopurified from HeLa cells): 0.06 µM
CC(C)n1cnc2c(NCc3ccc(-c4cccc(C(=O)O)c4)cc3)nc(N[C@H]3CC[C@H](N)CC3)nc21 [Compound 118] | 205 to 208 °C | – | 1 µM | 6 µM | – | –
CC(=O)N[C@H]1CCCC[C@@H]1Nc1nc(NCc2ccc(-c3ccccc3)cc2)c2ncn(C(C)C)c2n1 [Compound 60] | – | > 10 µM | 12 µM and > 10 µM | – | 7 | –
